SMILES strings stand for the structures.

As a reminder, the Ki is a dissociation constant, usually derived from enzyme kinetics or from competition with a known ligand. As a reminder, the EC50 is the concentration giving half of the maximal effect. A lower EC50 goes with a more potent agent.

The target of assay [1] is T1, 5-hydroxytryptamine receptor 1B (Homo sapiens, UniProt P28222). In words: Binding affinity was evaluated at human recombinant 5-hydroxytryptamine 1B receptor using [3H]5-CT as radioligand.
Assay [2] has as its target T1, 5-hydroxytryptamine receptor 1B. The assay can be described thus: The intrinsic activity was evaluated for its ability to inhibit forskolin-stimulated c-AMP formation mediated by cloned 5-hydroxytryptamine 1B receptor in CHO cell line; Antagonist. The format is functional, cell-based.
Assay [3] addresses T2, 5-hydroxytryptamine receptor 1A (Homo sapiens, UniProt P08908).
T2 sequence (P08908 whole entry): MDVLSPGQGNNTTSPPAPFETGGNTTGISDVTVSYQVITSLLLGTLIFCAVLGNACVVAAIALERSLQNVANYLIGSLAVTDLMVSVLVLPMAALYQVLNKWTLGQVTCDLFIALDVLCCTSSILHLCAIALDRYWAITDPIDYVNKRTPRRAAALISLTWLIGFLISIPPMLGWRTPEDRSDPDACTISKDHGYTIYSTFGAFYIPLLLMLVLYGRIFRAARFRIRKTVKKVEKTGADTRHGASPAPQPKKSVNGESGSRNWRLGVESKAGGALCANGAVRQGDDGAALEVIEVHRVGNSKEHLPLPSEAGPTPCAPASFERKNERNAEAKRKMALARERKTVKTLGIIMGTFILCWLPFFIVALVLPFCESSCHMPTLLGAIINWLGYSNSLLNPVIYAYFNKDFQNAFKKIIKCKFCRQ
In words: Binding affinity was evaluated at human recombinant 5-hydroxytryptamine 1A receptor using [3H]8-OH-DPAT as radioligand.

Assay [4] has as its target T1, 5-hydroxytryptamine receptor 1B. The assay can be described thus: The intrinsic activity was evaluated for its ability to inhibit forskolin-stimulated c-AMP formation mediated by cloned 5-hydroxytryptamine 1B receptor in CHO cell line; Partial Agonist. The format is functional, cell-based.
Assay [5] concerns the target 5-hydroxytryptamine receptor 1D (Homo sapiens, UniProt P28221). In words: Binding affinity was evaluated at human recombinant 5-hydroxytryptamine 1D receptor using [3H]-5-CT as radioligand.
Assay [6] deals with T1, 5-hydroxytryptamine receptor 1B. In words: The intrinsic activity was evaluated for its ability to inhibit forskolin-stimulated c-AMP formation mediated by cloned 5-hydroxytryptamine 1B receptor in CHO cell line. The class given is functional, cell-based.

T1 sequence (P28222 whole entry): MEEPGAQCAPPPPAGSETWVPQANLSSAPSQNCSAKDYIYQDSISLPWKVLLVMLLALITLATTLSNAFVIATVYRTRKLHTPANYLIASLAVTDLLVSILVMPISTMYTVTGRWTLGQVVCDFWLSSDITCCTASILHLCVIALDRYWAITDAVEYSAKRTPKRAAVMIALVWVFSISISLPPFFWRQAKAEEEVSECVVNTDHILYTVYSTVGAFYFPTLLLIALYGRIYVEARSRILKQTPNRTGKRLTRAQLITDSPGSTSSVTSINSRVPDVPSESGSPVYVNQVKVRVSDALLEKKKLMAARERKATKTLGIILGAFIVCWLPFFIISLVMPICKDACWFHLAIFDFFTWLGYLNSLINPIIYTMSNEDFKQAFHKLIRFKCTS
Chain of 5-hydroxytryptamine receptor 1D (P28221 whole entry): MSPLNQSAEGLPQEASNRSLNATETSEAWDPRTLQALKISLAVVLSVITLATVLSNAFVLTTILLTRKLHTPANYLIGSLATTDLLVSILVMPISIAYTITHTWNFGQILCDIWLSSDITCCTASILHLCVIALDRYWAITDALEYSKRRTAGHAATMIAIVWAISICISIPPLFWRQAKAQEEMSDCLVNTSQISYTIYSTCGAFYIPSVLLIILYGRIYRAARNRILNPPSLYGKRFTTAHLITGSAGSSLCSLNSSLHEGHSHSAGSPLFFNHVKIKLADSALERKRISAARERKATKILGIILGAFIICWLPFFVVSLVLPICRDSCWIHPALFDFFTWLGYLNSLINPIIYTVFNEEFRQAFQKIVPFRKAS

In the case of `c1ccc2c(N3CCNCC3)cccc2c1`, the Ki in assay [1] was 10.6 nM. For the same compound, the EC50 in assay [2] is more than 10000 nM.
On to `CN1CCN(c2cccc3ccc(OCC(=O)Nc4ccc(NC(=O)COc5ccc6[nH]cc(CCN)c6c5)cc4)cc23)CC1`, for which the Ki was 5.8 nM in assay [3], 0.7 nM in assay [1] and 0.5 nM in assay [5]. In addition, the EC50 result in assay [4] is “Partial agonist”.
Take `CN1CCN(c2cccc3ccc(OCC(=O)N4CCN(C(=O)COc5ccc6cccc(N7CCN(C)CC7)c6c5)CC4)cc23)CC1`: the Ki in assay [3] is 4 nM; in assay [1] it was 2.56 nM; in assay [5], 1.24 nM. Besides, the EC50 entry in assay [4] is reported as “Partial agonist”.
Turning to `CCCN(CCC)C1CCc2cccc(OCCCCCCOc3cccc4c3CC(N(CCC)CCC)CC4)c2C1` (configuration not stated), the Ki stood at 6.8 nM in assay [3], 6.4 nM in assay [1] and 3.9 nM in assay [5]. In addition, it took 50 nM to reach a half-maximal effect in assay [6] (EC50).
As for `CN1CCN(c2cccc3ccc(OCCOc4ccc5cccc(N6CCN(C)CC6)c5c4)cc23)CC1`, the values for the Ki in assay [3], in assay [1] and in assay [5] were 14 nM, 2.1 nM and 1.71 nM, respectively. The same compound showed an EC50 in assay [2] of more than 1000 nM.
With `CN1CCN(c2cccc3ccc(OCCOc4ccc5[nH]cc(CCN)c5c4)cc23)CC1`, the results for the Ki in assay [3], in assay [1] and in assay [5] were 0.96 nM, 0.76 nM and 0.4 nM, respectively. In assay [4], the EC50 result is “Partial agonist”.
